# Where two headings read alike, the source gives them in different places.
# How the values were obtained:
# [1] = Pharmacokinetic study in rats after oral administration of mix standard solution (UPLC-QqQ-MS of plasma); assay type: in vivo, Sprague-Dawley rats
# Description: Then, 300 μL acetonitrile for protein precipitation were added. For the incurred samples, 10 µL of methanol (volume of the corresponding standard solution for calibration curve) and 90 μL of samples with 300 μL acetonitrile were mixed, the mixture was then vortex-extracted for 2 min, and centrifuged for 10 min at 15,000 rpm (4 °C). The supernatant was transferred to a new tube and evaporated under a gentle stream of nitrogen to dryness. The residue was reconstituted with 80 μL of initial mobile phase, vortex-mixed for 1 min and centrifuged at 15,000 rpm for 5 min.
# The Chromatographic UPLC-QqQ-MS procedure of pharmacokinetics study was performed using ACQUITY UPLC (Waters, Milford, MA, USA) and SCIEX SelexION Triple Quad™ 5500 System (AB Sciex, Framingham, MA, USA) equipped with a heated electrospray ionization source (ESI) interface, separation was achieved using a Waters BEH C18 column (2.1 mm × 100 mm, 1.7 μm) which was protected by an online filter, the mobile phase was at a flow rate of 0.5 mL/min, consisted of aqueous solvent A: water–acetic acid (1000:1, v/v) and organic phase solvent B: acetonitrile. A 10-min binary gradient elution was performed for the separation, and the consecutive program was as follows: an isocratic elution of 5% solvent B to equilibrate the column, then followed by a linear gradient elution: 0–2.5 min, 5–27% B; 2.5–3.1 min, 27–36% B; 3.1–4.1 min, 36–57% B; 4.1–4.8 min, 57–84% B; 4.8–5.8 min, 84–100% B; 5.8–7 min, 100–100% B; 7–8 min, 100–5% B; and the re-equilibration time of gradient elution was 2 min. The column and auto-sampler tray temperature were maintained constantly at 45 °C and 4 °C, respectively. The injection volume was 10 μL. The electrospray ionization source was operated in positive mode. Quantitation was performed by schedule multiple reactions monitoring (sMRM). In the positive mode, the tandem mass spectrometry (MS/MS) typical instrumental conditions were: ion spray voltage 5.5 kV, ion source gas 150 psi, ion source gas 250 psi, temperature 500 °C, and curtain gas 38 psi. Data acquisition and processing were performed using Analyst Software (AB Sciex, Corp., Framingham, MA, USA).
# The developed UPLC-QqQ-MS method was applied to a pharmacokinetic study of seven analytes in rat plasma. Male healthy adult Sprague-Dawley rats (n = 6, 200 ± 20 g body weight) were supplied by Shanghai Jiao Tong University Laboratory Animal Centre (Shanghai, China). Animals were acclimatized in an environmental controlled breeding room with standard laboratory food and water for one week prior to the experiments. All the rats were fasted for 12 h, with free access to water prior to the experiments, animal welfare and experimental procedures conformed to guidance for the care and use of laboratory animals, similarly the ethical regulations of SJTU.
# Then immediately centrifuged at 4000 rpm for 5 minutes, plasma was transferred into another via and stored at −80 °C until assay.
# The plasma concentrations of seven analytes at different time points are described as the mean ± s.d. The concentration versus time curve was plotted. Compartmental model was chosen to calculate all the related pharmacokinetic parameters including Cmax (ng/mL), Tmax (h), AUC0−∞ (ng·h/mL), CL/F (L/h.kg), T1/2α (h) and T1/2β (h) were calculated by Kinetica4.4 software (Thermo Fisher Scientific™, Corp., Waltham, MA, USA), and performed with GraphPad 6 (GraphPad Software, Inc., La Jolla, CA, USA). We also use the area under the plasma concentration–time curve from zero to infinity (AUC0−∞) as the weighting factor to make an integrated pharmacokinetic curve. […]
# [2] = Stability of the seven analytes in rat plasma (method validation); assay type: in vitro ADME; details: n = 6; for Short-Term RSD: auto-sampler vials for 24 h; for Freeze-Thaw RSD: three freeze–thaw cycles; for Long-Term RSD: −20 °C for 30 days
# Description: Stability The short-term and long-term stability of seven analytes in rat plasma in auto-sampler vials for 24 h, at −20 °C for 30 days and after three freeze–thaw cycles was assessed, and also carried out in six replicates samples at three QC levels (low, medium and high).
# Stability: The analytes would be considered stable when the accuracy bias was within ±15% of the nominal concentrations (or ±20% for LLOQ).
# [3] = cited from earlier work
# [4] = male, Sprague-Dawley, rat, in vivo, po, 10 mg/kg
# [5] = high QC level (80.0 or 150 ng/mL)
# [6] = low QC level (0.25, 0.50 or 1.50 ng/mL)
# [7] = medium QC level (1.50, 3.50 or 15.0 ng/mL)
# [8] = after oral administration (10 mg/kg)
# [9] = male, Sprague-Dawley, rat, in vivo, po, 10 mg/kg, rats, oral 10 mg/kg mix standard in 0.5% CMC-Na, n = 6, Mean ± S.D., read-out: Tmax
# [10] = male, Sprague-Dawley, rat, in vivo, Table 8, mean, after oral administration (10 mg/kg), read-out: AUC0−∞
# [11] = male, Sprague-Dawley, rat, in vivo, rats, oral 10 mg/kg mix standard in 0.5% CMC-Na, n = 6, Mean ± S.D., compartmental model, read-out: Cmax
# [12] = male, Sprague-Dawley, rat, in vivo, rats, oral 10 mg/kg mix standard in 0.5% CMC-Na, n = 6, Mean ± S.D., read-out: CL/F (converted)
# [13] = male, Sprague-Dawley, rat, in vivo, rats, oral 10 mg/kg mix standard in 0.5% CMC-Na, n = 6, Mean ± S.D., read-out: T1/2β (converted)
# [14] = rats, oral 10 mg/kg mix standard in 0.5% CMC-Na, n = 6, Mean ± S.D., 10 mg/kg
Structure (SMILES),"AUC(0-inf) [1, 4] [ng·h/mL]","CL/F [1, 4] [mL/min/kg]","Cmax [1, 4] [ng/mL]","T1/2α [1, 4] [h]","Tmax [1, 4] [min]","half-life [1, 4] [min]","weighting coefficient ωj (AUC0−∞ of single analyte / total AUC0−∞ of analytes) [1, 4]","Short-Term RSD [2, 5] [%]","Short-Term RSD [2, 6] [%]","Short-Term RSD [2, 7] [%]","Freeze-Thaw RSD [2, 5] [%]","Freeze-Thaw RSD [2, 6] [%]","Freeze-Thaw RSD [2, 7] [%]","Long-Term RSD [2, 5] [%]","Long-Term RSD [2, 6] [%]","Long-Term RSD [2, 7] [%]","weighting coefficient ωj (AUC0−∞ of single analyte / total AUC0−∞ of analytes) [1, 8]","Tmax [1, 9] [min]","AUC(0-inf) [1, 10] [ng·h/mL]","Cmax [1, 11] [ng/mL]",other results
COc1c2c(cc3oc(C)cc(=O)c13)OC(C(C)(C)OC1OC(CO)C(O)C(O)C1O)C2 [4-O-beta-D-glucosyl-5-O-methylvisamminol],60.8,2810,50 ± 7.6,0.16 ± 0.01,12 ± 0.6,144 ± 66,0.085,1.02,3.89,1.35,8.53,2.40,1.40,2.41,3.99,7.52,,,,,
CC(C)(O)C1CCC(C)(C2C(O)CC3(C)C4CC(OC5OC(CO)C(O)C(O)C5O)C5C(C)(C)C(OC6OCC(O)C(O)C6O)CCC56CC46CCC23C)O1 (stereo not shown) [Astragaloside],,,,,,,,1.45,7.06,1.06,11.51,3.65,3.20,2.80,3.36,8.08,0.269,168 ± 6,191,26.6 ± 4,"CL/F [1, 12]: 832 mL/min/kg; half-life [1, 13]: 124 ± 2.4 min; T1/2α ([1]; rats, oral 10 mg/kg mix standard in 0.5% CMC-Na, n = 6, Mean ± S.D.): 1.98 ± 0.11 h; bioavailability ([3]; stated as a known characteristic, no reference given): low"
C=C1CCC[C@]2(C)C[C@@H]3OC(=O)C(C)=C3C[C@@H]12 [Atractylenolide II],17.9,9820,8.4 ± 2.4,0.04 ± 0.01,6 ± 6,246 ± 93.6,0.025,,,,,,,,,,,,,,biliary excretion [3]: rapid; intestinal absorption [3]: poor
COc1ccc(-c2coc3cc(O)ccc3c2=O)cc1O [Calycosin],11.5,8330,6.3 ± 2.5,0.27 ± 0.10,18 ± 6,65.4 ± 21.6,0.016,4.38,4.18,2.20,12.92,8.29,6.08,12.67,4.13,10.35,,,,,
COc1ccc(-c2coc3cc(O)ccc3c2=O)cc1 [Formononetin],,,,,,,,2.82,2.35,2.33,10.58,10.06,7.09,6.22,5.96,7.75,0.159,99,113,13.9 ± 4.2,"CL/F [1, 12]: 1530 mL/min/kg; half-life [1, 13]: 246 ± 156 min; T1/2α [1, 14]: 1.77 ± 0.81 h; Tmax [1, 14]: 96 ± 54 min; T1/2α ([1]; rats, oral 10 mg/kg mix standard in 0.5% CMC-Na, n = 6, Mean ± S.D., listed as formononetin, 10 mg/kg): 1.77 h"
Cc1cc(=O)c2c(O)c3c(cc2o1)OC(C)(C)[C@@H](O[C@@H]1O[C@H](CO)[C@@H](O)[C@H](O)[C@H]1O)C3 [Sec-O-Glucosylhamaudol],,,,,,,,1.01,2.75,1.40,9.64,4.77,3.73,1.46,3.70,3.11,,,,,"T1/2α ([1]; rat, in vivo, po, 10 mg/kg): 1.10 ± 0.26 h; T1/2β ([1]; rat, in vivo, po, 10 mg/kg): 2.4 ± 1.2 min; weighting coefficient ωj (AUC0−∞ of single analyte / total AUC0−∞ of analytes) ([1]; rat, in vivo, po, 10 mg/kg): 0.379"
